Experimental data taken from US20240366589A1, “NHE3-BINDING COMPOUNDS AND METHODS FOR INHIBITING PHOSPHATE TRANSPORT” (Ardelyx, Inc., priority 2013, published 2024).

Assays:
[1] = molecular target: T1, Rat NHE3 (Rattus norvegicus, UniProt P26433); test: Cell-based NHE3 activity under prompt conditions (OK cells, BCECF pH recovery), rat NHE3; details: prompt conditions
T1 construct: expressed in transfected cells; host or cells: Opossum kidney (OK) cells (ATCC), electroporation
Method in brief: (§1)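 OK cells electroporated with rat or human NHE3 gene, loaded 30 min at room temperature with 5 μM BCECF-AM in NH4Cl-HEPES pH 7.4.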

[2] = molecular target: T2, Human NHE3 (Homo sapiens, UniProt P48764); test: Cell-based NHE3 activity under prompt conditions (OK cells, BCECF pH recovery), human NHE3; details: prompt conditions
T2 construct: expressed in transfected cells; host or cells: Opossum kidney (OK) cells (ATCC), electroporation
T2 sequence (P48764 26-834): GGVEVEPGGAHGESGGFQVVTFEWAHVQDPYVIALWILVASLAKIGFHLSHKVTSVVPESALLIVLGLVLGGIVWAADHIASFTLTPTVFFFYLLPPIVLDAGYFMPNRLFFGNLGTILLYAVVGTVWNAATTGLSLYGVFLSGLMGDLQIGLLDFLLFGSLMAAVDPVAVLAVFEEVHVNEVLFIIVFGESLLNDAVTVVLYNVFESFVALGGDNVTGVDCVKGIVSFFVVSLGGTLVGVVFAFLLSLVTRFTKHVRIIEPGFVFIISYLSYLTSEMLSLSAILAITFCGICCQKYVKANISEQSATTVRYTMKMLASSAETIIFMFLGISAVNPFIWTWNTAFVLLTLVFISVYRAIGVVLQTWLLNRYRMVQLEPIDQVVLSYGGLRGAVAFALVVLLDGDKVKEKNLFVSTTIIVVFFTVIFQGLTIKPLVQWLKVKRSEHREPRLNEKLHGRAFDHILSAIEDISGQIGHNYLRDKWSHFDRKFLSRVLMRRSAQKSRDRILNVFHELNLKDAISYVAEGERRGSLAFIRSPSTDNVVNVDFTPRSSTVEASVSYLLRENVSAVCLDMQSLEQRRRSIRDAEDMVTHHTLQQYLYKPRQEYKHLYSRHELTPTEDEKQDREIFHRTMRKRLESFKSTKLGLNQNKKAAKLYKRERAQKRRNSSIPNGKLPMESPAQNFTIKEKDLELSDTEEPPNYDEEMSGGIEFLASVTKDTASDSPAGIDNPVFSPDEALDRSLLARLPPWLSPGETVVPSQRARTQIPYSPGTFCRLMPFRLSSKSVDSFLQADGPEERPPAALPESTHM
Method in brief: as §1

[3] = tested on: absorption of sodium from the intestinal lumen; test: Inhibition of intestinal sodium absorption: urinary sodium (uNa) 16 h after single oral dose in rats; format: in vivo, rat; details: oral gavage, 16 h post-dose
Method in brief: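 Eight-week-old Sprague-Dawley rats (n=6) given single oral gavage of compound or water vehicle in the late afternoon, then kept in metabolic cages with chow and water ad libitum. Urine collected over 16 h; sodium quantified by ion chromatography and expressed as % of vehicle mean, compared by one-way ANOVA with Dunnett's test.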

[4] = tested on: absorption of sodium from the intestinal lumen; test: Fecal form score (FFS) 16 h after oral dose in rats; format: in vivo, rat; details: oral gavage, 16 h post-dose, scale 1-5
Method in brief: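 Eight-week-old Sprague-Dawley rats (n=6) dosed by oral gavage with compound or water vehicle between 4 and 5 PM, then housed in metabolic cages with food and water ad libitum. At 16 h, fecal form scored 1 (normal pellet) to 5 (liquid streams) by two observers; group mean reported.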

[5] = tested on: phosphorus and calcium levels in the urine of rats; test: Urinary excretion of phosphate and calcium in rats (16 h overnight urine); format: in vivo, rat; details: rats, oral gavage, 16 h post-dose

T1 sequence (P26433 29-831): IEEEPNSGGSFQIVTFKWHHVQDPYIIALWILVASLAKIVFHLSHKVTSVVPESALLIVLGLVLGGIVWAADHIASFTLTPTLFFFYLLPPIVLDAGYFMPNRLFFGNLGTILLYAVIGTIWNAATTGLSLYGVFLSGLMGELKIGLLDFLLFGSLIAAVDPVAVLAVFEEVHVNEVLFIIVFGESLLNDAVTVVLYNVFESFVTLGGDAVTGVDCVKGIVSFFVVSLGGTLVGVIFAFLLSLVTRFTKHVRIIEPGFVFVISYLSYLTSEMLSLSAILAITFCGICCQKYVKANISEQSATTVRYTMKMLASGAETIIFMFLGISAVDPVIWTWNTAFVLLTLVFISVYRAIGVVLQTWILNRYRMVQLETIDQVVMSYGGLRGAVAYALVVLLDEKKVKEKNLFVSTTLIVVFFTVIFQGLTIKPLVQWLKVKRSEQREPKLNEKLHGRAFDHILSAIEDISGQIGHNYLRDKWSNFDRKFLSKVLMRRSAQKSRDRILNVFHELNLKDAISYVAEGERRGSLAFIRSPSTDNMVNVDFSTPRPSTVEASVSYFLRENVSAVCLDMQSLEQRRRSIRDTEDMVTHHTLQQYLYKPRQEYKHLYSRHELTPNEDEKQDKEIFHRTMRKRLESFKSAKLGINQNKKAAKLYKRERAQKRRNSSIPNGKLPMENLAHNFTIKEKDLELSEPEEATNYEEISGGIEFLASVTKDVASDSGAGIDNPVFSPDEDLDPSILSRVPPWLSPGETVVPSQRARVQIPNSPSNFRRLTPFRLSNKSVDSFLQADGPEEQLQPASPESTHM

Prompt Rat NHE3 pIC50 [1] | Prompt Human NHE3 pIC50 [2] | IC50 ([1]; read-out: Prompt Rat NHE3 pIC50 (converted)) [nM] | SMILES | Urine Na % of control ([3]; dose 1 mg/kg) [%] | Urine Na % of control ([3]; dose 3 mg/kg) [%] | Fecal Form Score average ([4]; dose 1 mg/kg) | Fecal Form Score average ([4]; dose 3 mg/kg) | Urine P % of control ([5]; dose 1 mg/kg) [%] | Urine P % of control ([5]; dose 3 mg/kg) [%] | Urine Na % of control ([3]; dose 10 mg/kg) [%] | Fecal Form Score average ([4]; dose 10 mg/kg) | Urine P % of control ([5]; dose 10 mg/kg) [%]
7.10 | 8.00 | – | CN(C)CC(=O)NC(CCC(=O)NCCOCCOCCNS(=O)(=O)c1cccc([C@@H]2CN(C)Cc3c(Cl)cc(Cl)cc32)c1)(CCC(=O)NCCOCCOCCNS(=O)(=O)c1cccc([C@@H]2CN(C)Cc3c(Cl)cc(Cl)cc32)c1)CCC(=O)NCCOCCOCCNS(=O)(=O)c1cccc([C@@H]2CN(C)Cc3c(Cl)cc(Cl)cc32)c1 [compound 128] | 46 | 35 | 1 | 2 | 90 | 58 | – | – | –
5.60 | 6.90 | – | CN1Cc2c(Cl)cc(Cl)cc2[C@H](c2cccc(S(=O)(=O)NCCOCCOCCNC(=O)CCC(CCC(=O)NCCOCCOCCNS(=O)(=O)c3cccc([C@@H]4CN(C)Cc5c(Cl)cc(Cl)cc54)c3)(CCC(=O)NCCOCCOCCNS(=O)(=O)c3cccc([C@@H]4CN(C)Cc5c(Cl)cc(Cl)cc54)c3)NC(=O)N(C)C)c2)C1 [compound 129] | – | 16 | – | 2 | – | 48 | – | – | –
6.10 | 7.20 | – | CNC(=O)NC(CCC(=O)NCCOCCOCCNS(=O)(=O)c1cccc([C@@H]2CN(C)Cc3c(Cl)cc(Cl)cc32)c1)(CCC(=O)NCCOCCOCCNS(=O)(=O)c1cccc([C@@H]2CN(C)Cc3c(Cl)cc(Cl)cc32)c1)CCC(=O)NCCOCCOCCNS(=O)(=O)c1cccc([C@@H]2CN(C)Cc3c(Cl)cc(Cl)cc32)c1 [compound 130] | – | 18 | – | 2 | – | 70 | – | – | –
– | 7.20 | 794 | CN1Cc2c(Cl)cc(Cl)cc2[C@H](c2cccc(S(=O)(=O)NCCOCCOCCN(C)C(=O)NCCCN(CCCNC(=O)N(C)CCOCCOCCNS(=O)(=O)c3cccc([C@@H]4CN(C)Cc5c(Cl)cc(Cl)cc54)c3)CCCNC(=O)N(C)CCOCCOCCNS(=O)(=O)c3cccc([C@@H]4CN(C)Cc5cc(Cl)cc(Cl)c54)c3)c2)C1 [compound 131] | – | 38 | – | 2 | – | 68 | – | – | –
6.00 | 7.70 | – | CCN(CCOCCOCCNC(=O)NCCCN(CCCNC(=O)NCCOCCOCCN(CC)S(=O)(=O)c1cccc([C@@H]2CN(C)Cc3c(Cl)cc(Cl)cc32)c1)CCCNC(=O)NCCOCCOCCN(CC)S(=O)(=O)c1cccc([C@@H]2CN(C)Cc3c(Cl)cc(Cl)cc32)c1)S(=O)(=O)c1cccc([C@@H]2CN(C)Cc3c(Cl)cc(Cl)cc32)c1 [compound 132] | – | 65 | – | 1 | – | 88 | – | – | –
6.50 | 7.30 | – | CN1Cc2c(Cl)cc(Cl)cc2[C@H](c2cccc(S(=O)(=O)NCCOCCOCCNC(=O)CCC(CCC(=O)NCCOCCOCCNS(=O)(=O)c3cccc([C@@H]4CN(C)Cc5c(Cl)cc(Cl)cc54)c3)(CCC(=O)NCCOCCOCCNS(=O)(=O)c3cccc([C@@H]4CN(C)Cc5c(Cl)cc(Cl)cc54)c3)NC(N)=O)c2)C1 [compound 133] | – | 23 | – | 2 | – | 67 | – | – | –
6.50 | 6.50 | – | CN1Cc2c(Cl)cc(Cl)cc2[C@H](c2cccc(S(=O)(=O)N(C)CCOCCOCCNC(=O)CCN(CCC(=O)NCCOCCOCCN(C)S(=O)(=O)c3cccc([C@@H]4CN(C)Cc5c(Cl)cc(Cl)cc54)c3)CCC(=O)NCCOCCOCCN(C)S(=O)(=O)c3cccc([C@@H]4CN(C)Cc5c(Cl)cc(Cl)cc54)c3)c2)C1 [compound 134] | – | 64 | – | 1 | – | 72 | – | – | –
7.40 | 8.45 | – | N[C@@H]1CCCN([C@H]2Cc3c(Cl)cc(Cl)cc3[C@@H]2Oc2ccc(S(=O)(=O)NCCOCCOCCNC(=O)NCCCCNC(=O)NCCOCCOCCNS(=O)(=O)c3ccc(O[C@H]4c5cc(Cl)cc(Cl)c5C[C@@H]4N4CCC[C@@H](N)C4)cc3)cc2)C1 [compound 135] | 100 | 94 | 1 | 1 | 92 | 44 | 58 | 2 | 85
<5.00 | 7.70 | – | CN(C)[C@H]1Cc2ccc(F)cc2[C@@H]1Oc1ccc(S(=O)(=O)NCCOCCOCCNC(=O)NCCCCNC(=O)NCCOCCOCCNS(=O)(=O)c2ccc(O[C@H]3c4cc(F)ccc4C[C@@H]3N(C)C)cc2)cc1 [compound 136] | – | – | – | – | – | – | 104 | 1 | 93
7.30 | 7.30 | – | CN1Cc2c(Cl)cc(Cl)cc2[C@H](c2cccc(S(=O)(=O)NCCOCCOCCNC(=O)CCC(CCC(=O)NCCOCCOCCNS(=O)(=O)c3cccc([C@@H]4CN(C)Cc5c(Cl)cc(Cl)cc54)c3)(CCC(=O)NCCOCCOCCNS(=O)(=O)c3cccc([C@@H]4CN(C)Cc5c(Cl)cc(Cl)cc54)c3)NC(=O)CCCC(=O)O)c2)C1 [compound 137] | 39 | 28 | 1 | 3 | 137 | 139 | – | – | –
7.30 | 7.30 | – | CN(CC(=O)O)CC(=O)NC(CCC(=O)NCCOCCOCCNS(=O)(=O)c1cccc([C@@H]2CN(C)Cc3c(Cl)cc(Cl)cc32)c1)(CCC(=O)NCCOCCOCCNS(=O)(=O)c1cccc([C@@H]2CN(C)Cc3c(Cl)cc(Cl)cc32)c1)CCC(=O)NCCOCCOCCNS(=O)(=O)c1cccc([C@@H]2CN(C)Cc3c(Cl)cc(Cl)cc32)c1 [compound 138] | – | 37 | – | 2 | – | 78 | – | – | –
7.60 | 7.80 | – | CN1Cc2c(Cl)cc(Cl)cc2[C@H](c2cccc(S(=O)(=O)NCCOCCOCCNC(=O)CCC(CCC(=O)NCCOCCOCCNS(=O)(=O)c3cccc([C@@H]4CN(C)Cc5c(Cl)cc(Cl)cc54)c3)(CCC(=O)NCCOCCOCCNS(=O)(=O)c3cccc([C@@H]4CN(C)Cc5c(Cl)cc(Cl)cc54)c3)NC(=O)COCC(=O)O)c2)C1 [compound 139] | 80 | 27 | 1 | 3 | 63 | 45 | – | – | –
8.90 | 7.70 | – | O=C(NCCCCNC(=O)NCCOCCOCCNS(=O)(=O)c1ccc(O[C@H]2c3cc(F)ccc3C[C@@H]2N2CCCCC2)cc1)NCCOCCOCCNS(=O)(=O)c1ccc(O[C@H]2c3cc(F)ccc3C[C@@H]2N2CCCCC2)cc1 [compound 140] | – | – | – | – | – | – | 110 | 1 | 121
8.10 | 7.10 | – | CN1Cc2c(Cl)cc(Cl)cc2[C@H](c2cccc(S(=O)(=O)NCCOCCOCCNC(=O)CCC(CCC(=O)NCCOCCOCCNS(=O)(=O)c3cccc([C@@H]4CN(C)Cc5c(Cl)cc(Cl)cc54)c3)(CCC(=O)NCCOCCOCCNS(=O)(=O)c3cccc([C@@H]4CN(C)Cc5c(Cl)cc(Cl)cc54)c3)NC(=O)N(C)C[C@H](O)[C@@H](O)[C@H](O)[C@H](O)CO)c2)C1 [compound 142] | – | 45 | – | 2 | – | 38 | – | – | –
